± gives the expanded uncertainty stated by the source.
How the values were obtained:
[1] = for vapor or sublimation pressure: Liquid, Closed cell (Static) method
[2] = molar heat capacity at constant pressure; conditions: 101.33 kPa, Crystal, DSC
[3] = Molar enthalpy of transition or fusion; conditions: Crystal; DSC

CCCCO [butan-1-ol]
[1]
Conditions	vapor or sublimation pressure [kPa]
333.2 K	8.1 ± 0.61
348.2 K	17.5 ± 0.61

O=C(O)CC(O)(CC(=O)O)C(=O)O [citric acid]
[2]
Conditions	molar heat capacity at constant pressure [J/K/mol]
324.9 K	239.8 ± 26
328.2 K	243 ± 26
331.5 K	245.9 ± 26
334.9 K	248.6 ± 26
338.2 K	251.2 ± 27
341.5 K	253.6 ± 27
344.9 K	255.9 ± 27
348.2 K	258.2 ± 27
351.5 K	260.4 ± 28
354.9 K	262.5 ± 28
358.2 K	264.6 ± 28
361.5 K	266.6 ± 28
364.9 K	268.7 ± 28
368.2 K	270.7 ± 29
371.5 K	272.6 ± 29
374.9 K	274.5 ± 29
378.2 K	276.2 ± 29
381.5 K	278.1 ± 30
384.9 K	279.9 ± 30
388.2 K	281.8 ± 30
391.5 K	283.7 ± 30
394.9 K	286 ± 30

Conditions	Molar enthalpy of transition or fusion [kcal/mol]
[3]	14.1 ± 0.311

Conditions	Normal melting temperature [°C]
[1], Crystal, DTA	151.8 ± 2
